Experimental data published in patent US20050250713A1, “11,12-Cyclic thiocarbamate macrolide antibacterial agents” (priority 2004, published 2005).
Values after ≈ are worked out from the molar mass of the structure shown.

Tests used:
Experiment in all cases: MIC, microdilution broth method (NCCLS)
Format in all cases: cell-based
S. aureus ATCC29213 = conditions: Staphylococcus aureus, cation adjusted Mueller-Hinton broth, 16-20 hours
Method: (§1) Minimum inhibitory concentration (MIC) has been an indicator of in vitro antibacterial activity widely used in the art. The in vitro antimicrobial activity of the compounds was determined by the microdilution broth method following the test method from the National Committee for Clinical Laboratory Standards (NCCLS). This method is described in the NCCLS Document M7-A4, Vol. 17, No.2, “Methods for Dilution Antimicrobial Susceptibility Test for Bacteria that Grow Aerobically—Fourth Edition”, which is incorporated herein by reference. In this method two-fold serial dilutions of drug in cation adjusted Mueller-Hinton broth are added to wells in microdilution trays. The test organisms are prepared by adjusting the turbidity of actively growing broth cultures so that the final concentration of test organism after it is added to the wells is approximately 5×10^4 CFU/well. Following inoculation of the microdilution trays, the trays are incubated at 35 °C for 16-20 hours and then read. […] The amount of growth in the wells containing the test compound is compared with the amount of growth in the growth-control wells (no test compound) used in each tray. As set forth in Table 1, compounds of the present invention were tested against a variety of Gram positive and Gram negative pathogenic bacteria resulting in a range of activities depending on the organism tested.

H. influenzae ATCC49247 = conditions: Haemophilus influenzae, cation adjusted Mueller-Hinton broth, 16-20 hours, read-out: MIC Values, D: H. influenzae ATCC49247
Method: as §1

S. pneumoniae ATCC49619 = conditions: Streptococcus pneumoniae, cation adjusted Mueller-Hinton broth, 16-20 hours, read-out: MIC Values, C: S. pneumoniae ATCC49619
Method: as §1

E. faecalis ATCC29212 = conditions: Enterococcus faecalis, cation adjusted Mueller-Hinton broth, 16-20 hours, read-out: MIC Values, B: E. faecalis ATCC29212
Method: as §1

Compound | MIC (S. aureus ATCC29213) | MIC (H. influenzae ATCC49247) | MIC (S. pneumoniae ATCC49619) | MIC (E. faecalis ATCC29212)
CC[C@H]1OC(=O)[C@H](C)C(=O)[C@H](C)[C@@H](O[C@@H]2O[C@H](C)C[C@H](N(C)C)[C@H]2O)[C@](C)(OC(=O)NC/C=C/c2ccc(-c3cccnn3)cc2)C[C@@H](C)C(=O)[C@H](C)[C@H]2NC(=S)O[C@@]21C [Compound 4] | 0.5 µg/mL (≈ 0.587 µM) | 2 µg/mL (≈ 2.35 µM) | 0.12 µg/mL (≈ 0.141 µM) | 0.25 µg/mL (≈ 0.293 µM)
CC[C@H]1OC(=O)[C@H](C)C(=O)[C@H](C)[C@@H](O[C@@H]2O[C@H](C)C[C@H](N(C)C)[C@H]2O)[C@](C)(OC(=O)NC/C=C/c2cnc3ccccc3c2)C[C@@H](C)C(=O)[C@H](C)[C@H]2NC(=S)O[C@@]21C [Compound 5] | 0.25 µg/mL (≈ 0.303 µM) | 1 µg/mL (≈ 1.21 µM) | ≤ 0.015 µg/mL | 0.06 µg/mL (≈ 0.0727 µM)
CC[C@H]1OC(=O)[C@H](C)C(=O)[C@H](C)[C@@H](O[C@@H]2O[C@H](C)C[C@H](N(C)C)[C@H]2O)[C@](C)(OC(=O)NC/C=C/c2cnc(C3CC3)nc2)C[C@@H](C)C(=O)[C@H](C)[C@H]2NC(=S)O[C@@]21C [Compound 7] | 0.5 µg/mL (≈ 0.613 µM) | 1 µg/mL (≈ 1.23 µM) | ≤ 0.015 µg/mL | 0.06 µg/mL (≈ 0.0735 µM)
CC[C@H]1OC(=O)[C@H](C)C(=O)[C@H](C)[C@@H](O[C@@H]2O[C@H](C)C[C@H](N(C)C)[C@H]2O)[C@](C)(OC(=O)OC/C=C/c2cnc3ccccc3c2)C[C@@H](C)C(=O)[C@H](C)[C@H]2NC(=S)O[C@@]21C [Compound 9] | 0.12 µg/mL (≈ 0.145 µM) | 2 µg/mL (≈ 2.42 µM) | – | 0.06 µg/mL (≈ 0.0726 µM)
CC[C@H]1OC(=O)[C@H](C)C(=O)[C@H](C)[C@@H](O[C@@H]2O[C@H](C)C[C@H](N(C)C)[C@H]2O)[C@](C)(OC(=O)NC/C(F)=C/c2cnc3ccccc3c2)C[C@@H](C)C(=O)[C@H](C)[C@H]2NC(=S)O[C@@]21C [Compound 12] | 0.5 µg/mL (≈ 0.593 µM) | 1 µg/mL (≈ 1.19 µM) | 0.03 µg/mL (≈ 0.0356 µM) | 0.12 µg/mL (≈ 0.142 µM)

More lines, now with the values ahead:

MIC (S. aureus ATCC29213) | MIC (H. influenzae ATCC49247) | MIC (S. pneumoniae ATCC49619) | MIC (E. faecalis ATCC29212) | Compound
0.5 µg/mL (≈ 0.586 µM) | 1 µg/mL (≈ 1.17 µM) | ≤ 0.015 µg/mL | 0.06 µg/mL (≈ 0.0703 µM) | CC[C@H]1OC(=O)[C@H](C)C(=O)[C@H](C)[C@@H](O[C@@H]2O[C@H](C)C[C@H](N(C)C)[C@H]2O)[C@](C)(OC(=O)NC/C=C/c2ccc(Br)nc2)C[C@@H](C)C(=O)[C@H](C)[C@H]2NC(=S)O[C@@]21C [Compound 6]
0.25 µg/mL (≈ 0.292 µM) | 2 µg/mL (≈ 2.34 µM) | ≤ 0.015 µg/mL | 0.12 µg/mL (≈ 0.14 µM) | CC[C@H]1OC(=O)[C@H](C)C(=O)[C@H](C)[C@@H](O[C@@H]2O[C@H](C)C[C@H](N(C)C)[C@H]2O)[C@](C)(OC(=O)OC/C=C/c2ccc(Br)nc2)C[C@@H](C)C(=O)[C@H](C)[C@H]2NC(=S)O[C@@]21C [Compound 10]
